In patent US20260116868A1 (Arcus Biosciences, Inc., priority 2023, published 2026):

What was measured:
Cbl-b = target: T1, Cbl-b (Homo sapiens, UniProt Q13191); experiment: Cbl-b probe displacement HTRF binding assay; settings: 0.4 nM Cbl-b, 150 nM BODIPY probe
T1 construct: biotin (biotinylated protein)
Procedure, shortened: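 Compound competes with BODIPY probe (150 nM) for biotinylated Cbl-b (0.4 nM) in HEPES/NaCl/Triton/TCEP/BSA buffer; 60 min preincubation, 15 min with probe, room temperature. Tb-streptavidin HTRF read; % displacement vs DMSO and no-protein controls, IC50 from four-parameter fit.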

Jurkat cells = experiment: IL-2 secretion assay in Jurkat cells activated with CD3/CD28 T Cell Activator; format: cell-based; settings: Homo sapiens; Jurkat cells, CD3/CD28 T Cell Activator, 24 h, IL-2 AlphaLISA; read-out: IL-2 Secretion (EC50)
Protocol: Certain compounds were also evaluated in an IL-2 secretion assay. On the day of the assay, a 16 point, 1:2 master serial dilution of each compound was prepared in Opti-MEM to span a final concentration range of 10 μM to 300 pM. Assays were set up in CORNING® tissue culture-treated 384-well microplates containing 60 nL of each dilution. Jurkat cells grown in RPMI-1640 supplemented with 10% FBS, 1% Glutamax, and 1% Pen/Strep were collected, resuspended in Opti-MEM. 50,000 cells/well and added to the compound plates. After a short spin (1200 rpm for 1 min), the plates were incubated at 37° C. for 1 hour. The cells were activated by adding 15 μL of IMMUNOCULT™ Human CD3/CD28 T Cell Activator (STEMCELL Technologies) diluted in Opti-MEM. After 24 h of incubation at 37° C., aliquots of culture supernatants were transferred to OptiPlate-384 (PerkinElmer) microplates. The level of IL-2 secretion in the supernatants was then determined using the IL-2 (human) AlphaLISA Detection Kit (PerkinElmer) according to the manufacturer's recommendations. The AlphaLISA signal was measured using an EnVision plate reader (PerkinElmer). EC50 values were determined by fitting the data to a standard 4-parameter logistic equation. See Table 7 for data for select compounds (IL-2 Secretion (EC50)).

T1 sequence (Q13191 whole entry, species assumed): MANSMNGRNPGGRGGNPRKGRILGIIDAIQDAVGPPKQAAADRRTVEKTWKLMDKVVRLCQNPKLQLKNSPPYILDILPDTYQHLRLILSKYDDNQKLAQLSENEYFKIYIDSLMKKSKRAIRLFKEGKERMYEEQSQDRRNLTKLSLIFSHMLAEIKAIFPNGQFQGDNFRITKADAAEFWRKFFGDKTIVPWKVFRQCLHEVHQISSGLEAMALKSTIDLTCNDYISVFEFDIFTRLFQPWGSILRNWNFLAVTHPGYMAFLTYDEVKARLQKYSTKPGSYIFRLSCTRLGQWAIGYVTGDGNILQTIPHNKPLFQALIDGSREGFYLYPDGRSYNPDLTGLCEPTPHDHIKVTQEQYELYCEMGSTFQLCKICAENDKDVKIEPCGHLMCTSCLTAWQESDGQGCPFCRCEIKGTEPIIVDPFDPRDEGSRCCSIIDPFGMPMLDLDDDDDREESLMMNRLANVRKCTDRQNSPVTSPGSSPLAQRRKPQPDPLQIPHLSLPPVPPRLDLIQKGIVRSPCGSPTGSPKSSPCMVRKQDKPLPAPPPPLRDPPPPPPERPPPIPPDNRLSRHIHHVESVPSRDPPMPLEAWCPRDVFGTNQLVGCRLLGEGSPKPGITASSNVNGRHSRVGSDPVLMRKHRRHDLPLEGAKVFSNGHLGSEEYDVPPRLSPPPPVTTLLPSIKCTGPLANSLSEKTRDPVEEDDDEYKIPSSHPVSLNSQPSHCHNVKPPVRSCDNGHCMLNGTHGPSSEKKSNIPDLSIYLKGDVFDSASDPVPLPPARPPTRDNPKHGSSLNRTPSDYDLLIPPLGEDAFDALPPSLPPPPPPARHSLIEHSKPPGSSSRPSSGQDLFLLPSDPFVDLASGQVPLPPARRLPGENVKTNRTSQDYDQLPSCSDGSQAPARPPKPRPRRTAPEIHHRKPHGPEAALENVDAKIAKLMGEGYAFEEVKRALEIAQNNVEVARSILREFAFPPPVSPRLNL

Structure (SMILES) | IC50 (Cbl-b) [nM] | EC50 (Jurkat cells) [nM]
Cn1cnnc1-c1cc(F)ccc1-c1cc(NC(=O)c2cc(CNCC3(F)CCC3)cn(C3CC3)c2=O)nc(C2CC2)c1 [Example 24, N-{6-cyclopropyl-4-[4-fluoro-2-(4-methyl-4H-1,2,4-triazol-3-yl)phenyl]-2-pyridyl}-1-cyclopropyl-5-({[(1-fluorocyclobutyl)methyl]amino}methyl)-2-oxo-1,2-dihydronicotinamide] | < 100 | < 100
CO[C@H]1CCCN(Cc2cc(C(=O)Nc3cc(-c4ccc(F)cc4-c4nncn4C)cc(C4CC4)n3)c(=O)n(C3CC3)c2)C1 [Example 25, N-{6-cyclopropyl-4-[4-fluoro-2-(4-methyl-4H-1,2,4-triazol-3-yl)phenyl]-2-pyridyl}-5-{[(S)-3-methoxy-1-piperidyl]methyl}-1-cyclopropyl-2-oxo-1,2-dihydronicotinamide] | < 100 | 100 to 1000
COC1CN(Cc2cc(C(=O)Nc3cc(-c4ccc(F)cc4-c4nncn4C)cc(C4CC4)n3)c(=O)n(C3CC3)c2)C1 [Example 26, N-{6-cyclopropyl-4-[4-fluoro-2-(4-methyl-4H-1,2,4-triazol-3-yl)phenyl]-2-pyridyl}-1-cyclopropyl-5-[(3-methoxy-1-azetidinyl)methyl]-2-oxo-1,2-dihydronicotinamide] | < 100 | 100 to 1000
Cn1cnnc1-c1cc(F)ccc1-c1cc(NC(=O)c2cc(-c3cc[nH]n3)cn(C3CC3)c2=O)nc(C2CC2)c1 [Example 27, N-{6-Cyclopropyl-4-[4-fluoro-2-(4-methyl-4H-1,2,4-triazol-3-yl)phenyl]-2-pyridyl}-1-cyclopropyl-2-oxo-5-(3-pyrazolyl)-1,2-dihydronicotinamide] | 100 to 1000 | > 5000
Cn1cnnc1-c1cc(F)ccc1-c1cc(NC(=O)c2cc(-c3cccc(N)c3)cn(C3CC3)c2=O)nc(C2CC2)c1 [Example 28, N-{6-Cyclopropyl-4-[4-fluoro-2-(4-methyl-4H-1,2,4-triazol-3-yl)phenyl]-2-pyridyl}-5-(m-aminophenyl)-1-cyclopropyl-2-oxo-1,2-dihydronicotinamide] | 100 to 1000 | > 5000
Cn1cnnc1-c1cc(F)ccc1-c1cc(NC(=O)c2cc(C3CC3)cn(C3CC3)c2=O)nc(C2CC2)c1 [Example 29, N-{6-Cyclopropyl-4-[4-fluoro-2-(4-methyl-4H-1,2,4-triazol-3-yl)phenyl]-2-pyridyl}-1-cyclopropyl-5-cyclopropyl-2-oxo-1,2-dihydronicotinamide] | 100 to 1000 | 1000 to 5000
Cn1cnnc1-c1cc(F)ccc1-c1cc(NC(=O)c2cc(C3CCNC3)cn(C3CC3)c2=O)nc(C2CC2)c1 (stereo not drawn) [Example 30, N-{6-Cyclopropyl-4-[4-fluoro-2-(4-methyl-4H-1,2,4-triazol-3-yl)phenyl]-2-pyridyl}-1-cyclopropyl-2-oxo-5-(3-pyrrolidinyl)-1,2-dihydronicotinamide] | 100 to 1000 | > 5000
Cn1cnnc1-c1cc(F)ccc1-c1cc(NC(=O)c2cc(C3CCNC3)cn(CC3CC3)c2=O)nc(C2CC2)c1 (stereo not drawn) [Example 31, N-[6-cyclopropyl-4-[4-fluoro-2-(4-methyl-1,2,4-triazol-3-yl)phenyl]pyridin-2-yl]-1-(cyclopropylmethyl)-2-oxo-5-pyrrolidin-3-ylpyridine-3-carboxamide] | 100 to 1000 | > 5000
CN(C)Cc1c[nH]c(=O)c(C(=O)Nc2cc(-c3ccc(F)cc3-c3nncn3C)cc(C3CC3)n2)c1 [Example 32, N-{6-Cyclopropyl-4-[4-fluoro-2-(4-methyl-4H-1,2,4-triazol-3-yl)phenyl]-2-pyridyl}-5-[(dimethylamino)methyl]-2-oxo-1,2-dihydronicotinamide] | < 100 | 1000 to 5000
CN(C)Cc1cc(C(=O)Nc2cc(-c3ccc(F)cc3-c3nncn3C)cc(C3CC3)n2)c(=O)n(C2CC2)c1 [Example 33, N-{6-Cyclopropyl-4-[4-fluoro-2-(4-methyl-4H-1,2,4-triazol-3-yl)phenyl]-2-pyridyl}-1-cyclopropyl-5-[(dimethylamino)methyl]-2-oxo-1,2-dihydronicotinamide] | < 100 | 100 to 1000
C=CCn1cc(CN(C)C)cc(C(=O)Nc2cc(-c3ccc(F)cc3-c3nncn3C)cc(C3CC3)n2)c1=O [Example 34, N-{6-Cyclopropyl-4-[4-fluoro-2-(4-methyl-4H-1,2,4-triazol-3-yl)phenyl]-2-pyridyl}-1-allyl-5-[(dimethylamino)methyl]-2-oxo-1,2-dihydronicotinamide] | < 100 | 1000 to 5000
C[C@H]1CCCN(Cc2cc(C(=O)Nc3cc(-c4ccc(C#N)cc4-c4nccn4C)cc(Cl)n3)c(=O)n(C3CC3)c2)C1 [Example 35, N-{6-chloro-4-[4-cyano-2-(1-methyl-2-imidazolyl)phenyl]-2-pyridyl}-5-{[(S)-3-methyl-1-piperidyl]methyl}-1-cyclopropyl-2-oxo-1,2-dihydronicotinamide] | < 100 | 100 to 1000
CN1C[C@@H]2C[C@H]1CN2Cc1cc(C(=O)Nc2cc(-c3ccc(C#N)cc3-c3nccn3C)cc(C3CC3)n2)c(=O)n(C2CC2)c1 [Example 38, N-{4-[4-cyano-2-(1-methyl-2-imidazolyl)phenyl]-6-cyclopropyl-2-pyridyl}-5-({(1S,4S)-5-methyl-2,5-diazabicyclo[2.2.1]hept-2-yl}methyl)-1-cyclopropyl-2-oxo-1,2-dihydronicotinamide] | 100 to 1000 | 1000 to 5000
Cn1ccnc1-c1cc(C#N)ccc1-c1cc(NC(=O)c2cc(CNC3(C)CCC3)cn(C3CC3)c2=O)nc(C2CC2)c1 [Example 39, N-{4-[4-cyano-2-(1-methyl-2-imidazolyl)phenyl]-6-cyclopropyl-2-pyridyl}-1-cyclopropyl-5-[(1-methylcyclobutylamino)methyl]-2-oxo-1,2-dihydronicotinamide] | < 100 | < 100
Cn1ccnc1-c1cc(C#N)ccc1-c1cc(NC(=O)c2cc(CNCCOC(F)(F)F)cn(C3CC3)c2=O)nc(C2CC2)c1 [Example 40, N-{4-[4-cyano-2-(1-methyl-2-imidazolyl)phenyl]-6-cyclopropyl-2-pyridyl}-1-cyclopropyl-2-oxo-5-[(2-trifluoromethoxyethylamino)methyl]-1,2-dihydronicotinamide] | < 100 | 100 to 1000
Cn1ccnc1-c1cc(C#N)ccc1-c1cc(NC(=O)c2cc(CN3CCC4(CC4)C3)cn(C3CC3)c2=O)nc(C2CC2)c1 [Example 41, N-{4-[4-cyano-2-(1-methyl-2-imidazolyl)phenyl]-6-cyclopropyl-2-pyridyl}-5-{(5-aza-5-spiro[2.4]heptyl)methyl}-1-cyclopropyl-2-oxo-1,2-dihydronicotinamide] | < 100 | 100 to 1000
COCCNCc1cc(C(=O)Nc2cc(-c3ccc(C#N)cc3-c3nccn3C)cc(C3CC3)n2)c(=O)n(C2CC2)c1 [Example 42, N-{4-[4-cyano-2-(1-methyl-2-imidazolyl)phenyl]-6-cyclopropyl-2-pyridyl}-1-cyclopropyl-5-[(2-methoxyethylamino)methyl]-2-oxo-1,2-dihydronicotinamide] | < 100 | < 100
C[C@H]1CCCN(Cc2cc(C(=O)Nc3cc(-c4ccc(C#N)cc4-c4nccn4C)cc(C4CC4)n3)c(=O)n(C3CC3)c2)C1 [Example 43, N-{4-[4-cyano-2-(1-methyl-2-imidazolyl)phenyl]-6-cyclopropyl-2-pyridyl}-5-{[(S)-3-methyl-1-piperidyl]methyl}-1-cyclopropyl-2-oxo-1,2-dihydronicotinamide] | < 100 | < 100
C[C@H]1CCCN(Cc2cc(C(=O)Nc3cc(-c4ccc(C(N)=O)cc4-c4nccn4C)cc(C4CC4)n3)c(=O)n(C3CC3)c2)C1 [Example 44, N-{4-[4-carbamoyl-2-(1-methyl-2-imidazolyl)phenyl]-6-cyclopropyl-2-pyridyl}-5-{[(S)-3-methyl-1-piperidyl]methyl}-1-cyclopropyl-2-oxo-1,2-dihydronicotinamide] | 100 to 1000 | 1000 to 5000
[2H]C([2H])([2H])n1ccnc1-c1cc(C#N)ccc1-c1cc(NC(=O)c2cc(CNCCOC)cn(C3CC3)c2=O)nc(C2CC2)c1 [Example 45, N-[4-(4-cyano-2-{1-[(^2H3)methyl]-2-imidazolyl}phenyl)-6-cyclopropyl-2-pyridyl]-1-cyclopropyl-5-[(2-methoxyethylamino)methyl]-2-oxo-1,2-dihydronicotinamide] | < 100 | < 100
COCCNCc1cc(C(=O)Nc2cc(-c3ccc(C#N)cc3-c3nc(C(F)(F)F)cn3C)cc(C3CC3)n2)c(=O)n(C2CC2)c1 [Example 46, N-(4-{4-cyano-2-[1-methyl-4-(trifluoromethyl)-2-imidazolyl]phenyl}-6-cyclopropyl-2-pyridyl)-1-cyclopropyl-5-[(2-methoxyethylamino)methyl]-2-oxo-1,2-dihydronicotinamide] | 100 to 1000 | 1000 to 5000
